Laboratory results from patent US11141422B2, “Methods for treating pulmonary hypertension” (Chiesi Farmaceutici S.p.A., priority 2011, dated 2021).
Entries after “also recorded” stand apart in the source; their conditions may differ.

Assays:
[1] = test system: anaesthetized, mechanically ventilated pigs in normoxia; assay: Response to ADP infusion during normoxia: haemodynamic measurements in pigs (Protocol 3); format: in vivo
Experimental: (§1) Haemodynamic measurements were performed in six anaesthetized, mechanically ventilated pigs (30.2±0.7 kg) in normoxia (FiO2˜0.21) and hypoxia (FiO2˜0.10) prior to and during right atrial cangrelor infusion at a loading dose of 30 μg/kg/min for 10 min, and then a continuous infusion at 4 μg/kg/min for 80 min. Another six pigs (29.3±0.5 kg) were investigated in normoxia before and during right atrial infusion of ADP at 70 μg/kg/min for ˜7 min; as well as before and during simultaneous ADP and cangrelor infusion for ˜7 min at doses of 70 μg/kg/min and 4 μg/kg/min, respectively, after a cangrelor loading dose of 30 μg/kg/min for 10 min. All data are mean±SEM.
Protocol 3—Response to ADP During Normoxia.
ADP infusion during normoxia increased MPAP, temporarily to peak at 35.2±1.9 mmHg, 19.3±1.6 mmHg higher (p<0.001) than baseline, to then stabilize at a level 10.4±1.6 mmHg higher (p<0.001) than baseline, and 8.9±1.4 mmHg lower (p<0.001) than the peak, after ˜4-7 min. Also, after ˜4-7 min from initiation of ADP infusion, PVR had increased (p<0.002) by 2.8±0.4 WU and PCWP by 2.5±0.7 mmHg (p<0.019), compared to baseline. ADP infusion during normoxia decreased MAP, first to reach a nadir at 39.8±6.1 mmHg, 48.5±6.0 mmHg lower (p<0.001) than baseline, however, then stabilizing, after ˜4-7 min, at a level not different (p=ns) from, although slightly lower than, baseline, and 41.7±8.9 mmHg higher (p<0.001) than the nadir. MRAP, SVR, CO, HR, SV and blood-O2-consumption were unchanged (p=ns) by ADP infusion during normoxia.

[2] = test system: anaesthetized, mechanically ventilated pigs in hypoxia (hypoxic pulmonary vasoconstriction); assay: Response to cangrelor during hypoxia: haemodynamic measurements in pigs (Protocol 2); format: in vivo; details: for MPAP decrease compared to hypoxia baseline: hypoxia (FiO2˜0.10), mean±SEM
Experimental: as §1
Protocol 2—Response to Cangrelor During Hypoxia.
Compared to hypoxia baseline, MPAP decreased transiently by 3.3±0.4 (p<0.036) and 3.6±0.6 mmHg (p<0.018), respectively, 10 and 30 min after initiation of cangrelor infusion; but returned to levels not different (p=ns) from baseline 60 and 90 min after initiation of cangrelor infusion. PVR, MRAP, PCWP, MAP, SVR, CO, HR, SV and blood-O2-consumption were unaltered by cangrelor infusion during hypoxia (p=ns).

[3] = test system: anaesthetized, mechanically ventilated pigs in normoxia (ADP-induced pulmonary vasoconstriction); assay: Response to simultaneous ADP and cangrelor infusion during normoxia: haemodynamic measurements in pigs (Protocol 4); format: in vivo
Experimental: as §1
Protocol 4—Response to Simultaneous ADP and Cangrelor Infusion.
(§2) The ˜4-7 min MAP measurement after simultaneous ADP and cangrelor infusion was, however, not different (p=ns) from the measurement with ADP infusion alone. Also, SVR decreased (p<0.024) by 3.2±1.2 WU, as compared to baseline, in response to simultaneous ADP and cangrelor infusion. […] Furthermore, the ˜4-7 min PVR and PCWP measurements after simultaneous ADP and cangrelor infusion were lower (p<0.005 and p<0.022, respectively) than the measurements with ADP infusion alone. Also, the ˜4-7 min SV measurement after simultaneous ADP and cangrelor infusion was higher (p<0.02) than the measurement with ADP infusion alone.

[4] = test system: anaesthetized, mechanically ventilated pigs in normoxia; assay: Cangrelor infusion alone during normoxia: haemodynamic measurements in pigs; format: in vivo; details: p=ns
Experimental: as §1, §2

[5] = cited from earlier work
[6] = test system: dog thrombosis model; details: compared with placebo; animals receiving tissue-type plasminogen activator and heparin after thrombus formation; cited from earlier work
[7] = ˜4-7 min from initiation of ADP infusion
[8] = during hypoxia, p=ns, listed as Cangrelor
[9] = simultaneous ADP and cangrelor infusion, normoxia
[10] = simultaneous ADP and cangrelor infusion, after ˜4-7 min
[11] = simultaneous ADP and cangrelor infusion, p=ns

Nc1ncnc2c1ncn2[C@@H]1O[C@H](COP(=O)(O)OP(=O)(O)O)[C@@H](O)[C@H]1O [ADP, adenosine diphosphate]
MAP nadir ([1]; ADP infusion): 39.8±6.1 mmHg
MAP nadir, lower than baseline ([1]; ADP infusion): 48.5±6.0 mmHg
MPAP peak, higher than baseline ([1]; ADP infusion 70 μg/kg/min): 19.3±1.6 mmHg
MPAP peak ([1]; ADP infusion 70 μg/kg/min, mean±SEM): 35.2±1.9 mmHg
MAP stabilized level, higher than the nadir ([1]; ADP infusion, after ˜4-7 min): 41.7±8.9 mmHg
MPAP stabilized level, higher than baseline ([1]; ADP infusion, after ˜4-7 min): 10.4±1.6 mmHg
MPAP stabilized level, lower than the peak ([1]; ADP infusion, after ˜4-7 min): 8.9±1.4 mmHg
MAP stabilized level compared to baseline ([1]; ADP infusion, after ˜4-7 min, p=ns): not different
CO change by ADP infusion ([1]; p=ns): unchanged; also recorded: tended to decrease
HR change by ADP infusion ([1]; p=ns): unchanged
MRAP change by ADP infusion ([1]; p=ns): unchanged; also recorded: tended to increase
SV change by ADP infusion ([1]; p=ns): unchanged; also recorded: tended to decrease
SVR change by ADP infusion ([1]; p=ns): unchanged
blood-O2-consumption change by ADP infusion ([1]; p=ns): unchanged; also recorded: tended to decrease
PCWP increase compared to baseline [1, 7]: 2.5±0.7 mmHg
PVR increase compared to baseline [1, 7]: 2.8±0.4 WU

CSCCNc1nc(SCCC(F)(F)F)nc2c1ncn2[C@@H]1O[C@H](COP(=O)(O)OP(=O)(O)C(Cl)(Cl)P(=O)(O)O)[C@@H](O)[C@H]1O [cangrelor]
CO change by cangrelor infusion ([2]; during hypoxia, p=ns): unaltered
HR change by cangrelor infusion ([2]; during hypoxia, p=ns): unaltered
MAP change by cangrelor infusion ([2]; during hypoxia, p=ns): unaltered
MRAP change by cangrelor infusion ([2]; during hypoxia, p=ns): unaltered
PCWP change by cangrelor infusion ([2]; during hypoxia, p=ns): unaltered
PVR change by cangrelor infusion ([2]; during hypoxia, p=ns): unaltered
SV change by cangrelor infusion ([2]; during hypoxia, p=ns): unaltered
SVR change by cangrelor infusion ([2]; during hypoxia, p=ns): unaltered
blood-O2-consumption change by cangrelor infusion ([2]; during hypoxia, p=ns): unaltered
MAP change by cangrelor infusion [2, 8]: without affecting
SVR change by cangrelor infusion [2, 8]: without affecting
blood-O2-consumption change by cangrelor infusion [2, 8]: without affecting
MPAP decrease compared to hypoxia baseline ([2]; 10 min after initiation of cangrelor infusion (30 μg/kg/min for 10 min, then 4 μg/kg/min)): 3.3±0.4 mmHg
MPAP decrease compared to hypoxia baseline ([2]; 30 min after initiation of cangrelor infusion): 3.6±0.6 mmHg
MPAP compared to hypoxia baseline ([2]; hypoxia, 60 and 90 min after initiation of cangrelor infusion, p=ns): not different
MPAP decrease (attenuation of acute HPV) ([2]; hypoxia, 10 min after cangrelor infusion was initiated): ~12%
MPAP decrease (attenuation of acute HPV) ([2]; hypoxia, 30 min after cangrelor infusion was initiated): ~14%
attenuation of the MPAP peak induced by ADP infusion ([3]; normoxia): 34%
sustained MPAP increase induced by ADP infusion ([3]; normoxia): totally prevented
sustained PVR increase induced by ADP infusion ([3]; normoxia): totally prevented
MPAP transient increase compared to baseline (peak) ([3]; normoxia, simultaneous ADP 70 μg/kg/min and cangrelor 4 μg/kg/min after cangrelor loading dose 30 μg/kg/min for 10 min): 7.3±1.8 mmHg
MPAP peak as share of the peak ADP response without cangrelor ([3]; normoxia, simultaneous ADP and cangrelor infusion): ~66%
SVR decrease compared to baseline ([3]; simultaneous ADP and cangrelor infusion): 3.2±1.2 WU
MAP nadir [3, 9]: 64.9±3.4 mmHg
MAP transient decrease compared to baseline [3, 9]: 19.4±3.1 mmHg
MAP stabilized level, higher than the nadir [3, 10]: 12.9±2.2 mmHg
MAP stabilized level, lower than baseline [3, 10]: 6.5±1.2 mmHg
MPAP level, lower than the peak [3, 10]: 7.4±1.5 mmHg
MPAP compared to baseline ([3]; simultaneous ADP and cangrelor infusion, after ˜4-7 min, p=ns): not different
˜4-7 min MPAP measurement compared to ADP infusion alone ([3]; simultaneous ADP and cangrelor infusion, p<0.002): significantly lower
˜4-7 min PVR measurement compared to ADP infusion alone ([3]; simultaneous ADP and cangrelor infusion, p<0.005): lower
˜4-7 min SV measurement compared to ADP infusion alone ([3]; simultaneous ADP and cangrelor infusion, p<0.02): higher
˜4-7 min PCWP measurement compared to ADP infusion alone ([3]; simultaneous ADP and cangrelor infusion, p<0.022): lower
MAP nadir compared to the nadir response to ADP alone ([3]; simultaneous ADP and cangrelor infusion, p<0.027): significantly higher
CO change compared to baseline [3, 11]: unchanged
HR change compared to baseline [3, 11]: unchanged
MRAP change compared to baseline [3, 11]: unchanged
PCWP change compared to baseline [3, 11]: unchanged
PVR change compared to baseline [3, 11]: unchanged
SV change compared to baseline [3, 11]: unchanged
blood-O2-consumption change compared to baseline [3, 11]: unchanged; also recorded: tended to decrease
˜4-7 min CO measurement compared to ADP infusion alone [3, 11]: neither any differences
˜4-7 min HR measurement compared to ADP infusion alone [3, 11]: neither any differences
˜4-7 min MAP measurement compared to ADP infusion alone [3, 11]: not different
˜4-7 min SVR measurement compared to ADP infusion alone [3, 11]: did not differ
MAP decrease to ADP ([3]; with cangrelor): attenuated
PCWP increase with ADP infusion alone ([3]; with cangrelor): attenuated
trend for a SV decrease with ADP infusion alone ([3]; with cangrelor): attenuated
any of the haemodynamic variables [4]: did not alter
time to steady state concentrations in plasma from start of infusion ([5]; bolus 30 μg/kg and infusion 4 μg/kg/min): ≤ 30 min
half-life (clearance from plasma) ([5]; plasma): 3 to 6 min
cyclic flow variation [6]: decreased
myocardial flow [6]: improved
reocclusion [6]: decreased

CCCSc1nc(N[C@@H]2C[C@H]2c2ccc(F)c(F)c2)c2nnn([C@@H]3C[C@H](OCCO)[C@@H](O)[C@H]3O)c2n1 [ticagrelor]
cyclic flow variation [6]: decreased
myocardial flow [6]: improved
reocclusion [6]: decreased
